# Laboratory results published in a melting point compilation (Tetko et al.).
row,Compound,melting point
1,NC(=O)c1c(N)sc2c1CCCCC2,195 to 199 °C
2,Cc1ccc(C(N)C(=O)O)cc1 (stereo not drawn),269 to 271 °C
3,Sc1nnnn1-c1cccc(Cl)c1,148 to 150 °C
4,Cc1nc(NN)c2cc(-c3ccccc3)sc2n1,163 to 165 °C
5,Nc1ccc(N2CCCCC2)c(S(=O)(=O)Nc2ccccc2Cl)c1,146 to 148 °C
6,O=C(O)c1csc(-c2ccc(Cl)s2)n1,247 to 249 °C
7,COc1ccc2nc(Cl)ccc2c1S(=O)(=O)Cl,136 to 138 °C
8,Cc1cccc(COc2cccc(CC(=O)O)c2)c1,91 to 93 °C
9,Clc1cc(Cl)cc(-c2nnc(Br)s2)c1,154 to 156 °C
10,O=C(CCl)/N=c1\sccn1Cc1ccc(Cl)cc1Cl,128 to 130 °C
11,COC(=O)c1cc(Cl)c(NC(=O)OCC(F)(F)F)cc1OC,100 to 102 °C
12,CCOC(=O)c1oc2ccccc2c1CBr,77 to 79 °C
13,O=C(Nc1ccc2[nH]ccc2c1)c1ccc(F)cc1Br,185 to 187 °C
14,Cc1ccc(Cn2nc(C)c(/C=C/C(=O)O)c2C)cc1,161 to 163 °C
15,O=C1c2ccncc2C(=O)N1CCO,106 to 108 °C
16,OCc1cnn(Cc2ccccc2)c1,55 to 57 °C
17,N#CCc1ccc(NC(=O)CCl)cc1,122 to 124 °C
18,CC(C)(C)OC(=O)NCC(N)C1CCCCC1 (stereo not drawn),47 to 49 °C
19,NC(=O)C1(c2cccc(Cl)c2)CC1,99 to 101 °C
20,O=C(O)C=Cc1ccc(Cl)nc1,209 to 211 °C
21,Cn1ncc2c(=O)[nH]c(CCl)nc21,232 to 234 °C
22,O=C(O)c1cccc(NS(=O)(=O)c2ccccc2)c1,199 to 201 °C
23,c1ccc(COc2cccc3[nH]ncc23)cc1,125 to 127 °C
24,CCOC(=O)/C(C#N)=C\Nc1cc(F)ccc1F,164 to 166 °C

row,Compound,melting point
1,COc1ccc(-c2noc(CCCC(=O)O)n2)cc1,109 to 111 °C
2,COc1ccc(C(=O)O)cc1-c1ccccn1,226 to 228 °C
3,Cn1ccnc1C(O)CCc1ccccc1 (stereo not drawn),101 to 103 °C
4,O=C(O)CNC(=O)CC12CC3CC(CC(C3)C1)C2,165 to 167 °C
5,Cc1ccc2cc(CCl)c(Cl)nc2c1,132 to 134 °C
6,N#CC1=C(N)CCCC1,92 to 94 °C
7,CN1C(=O)c2ccc(C(=O)O)cc2S1(=O)=O,249 to 251 °C
8,CN1C(=O)CCC(C(N)=O)C1c1ccc(C(F)(F)F)cc1 (stereo not drawn),239 to 241 °C
9,N#CCCN1C(=O)NC2(CCCC2)C1=O,104 to 106 °C
10,CC1=NOC(=O)C1CCC(=O)O (stereo not drawn),139 to 141 °C
11,O=[N+]([O-])c1cc(S(=O)(=O)Cl)ccc1O,52 to 54 °C
12,NC(=O)CCOc1ccccc1F,85 to 87 °C
13,CCCC(C(=O)O)c1ccccc1 (stereo not drawn),63 to 67 °C
14,O=C(O)c1ccc(N2CCc3ccccc3C2)cc1,209 to 211 °C
15,Cc1cccc(I)c1C(=O)O,116 to 118 °C
16,N#CCc1coc(-c2ccccc2)n1,87 to 89 °C
17,CC(=O)c1ccc(-c2ccc(C(F)(F)F)cc2)s1,127 to 129 °C
18,COC(=O)C(=O)CC(=O)c1ccc(OC)cc1F,101 to 103 °C
19,Cc1nc2ccc(C#N)cc2s1,129 to 131 °C
20,O=C(O)c1ccccc1C(=O)c1cccs1,141 to 143 °C
21,Sc1nnc(-c2ccc3c(c2)OCO3)o1,179 to 181 °C
22,O=c1[nH]nnn1-c1ccccc1,188 to 189 °C
23,Oc1ccc(OCc2ccncc2)cc1,179 to 181 °C
24,CC(=O)c1cnc2cc(C)nn2c1C,144 to 146 °C

row,Compound,melting point
1,c1csc(-c2nn[nH]n2)c1,201 to 203 °C
2,N#Cc1ccc(CO)cc1,39 to 43 °C
3,O=c1[nH]cnc2ncccc12,249 to 251 °C
4,CC1CCC(NC(=O)C(C)Cl)CC1 (stereo not drawn),135 to 137 °C
5,COCC(N)=O,86 to 88 °C
6,COC(=O)c1cc([N+](=O)[O-])cc(S(C)(=O)=O)c1,134 to 136 °C
7,COC(=O)C(CO)NC(=O)C1CCCCC1 (stereo not drawn),109 to 111 °C
8,CCOC(=O)Nc1snc(C)c1C(C)=O,80 to 82 °C
9,O=C(O)c1oc2ccccc2c1CSc1cccs1,166 to 168 °C
10,Nc1nc2c(cc1C(=O)O)CCCC2,285 to 287 °C
11,CN(C)C(=O)c1cccc(S(N)(=O)=O)c1,121 to 123 °C
12,NC(=O)c1ccc(F)c(N)c1,137 to 139 °C
13,OC1(CNCc2ccccc2)CCc2ccccc21 (stereo not drawn),54 to 56 °C
14,NNC(=O)c1ccc2c(c1)OCCO2,142 to 144 °C
15,CN(C)C(=O)c1ccc(N)cc1,151 to 153 °C
16,Cn1c(=O)c2c(n(Cc3ccccc3)c1=O)NC(=O)C2CC(=O)O (stereo not drawn),243 to 247 °C
17,O=C(Nc1cccc(I)c1)C(F)(F)F,129 to 131 °C
18,Nc1cccc(-n2c(O)c(O)n(C3CC3)c2=O)c1,164 to 166 °C
19,Cc1ccc(NCCC(=O)O)nc1,201 to 203 °C
20,COc1ccc(CCC(=O)NN)cc1,129 to 131 °C
21,Cc1ccc(S(N)(=O)=O)cc1N,176 to 178 °C
22,Cc1ccc(C=CCC(=O)O)cc1,105 to 107 °C
23,CC(=O)c1ccc(CC(=O)O)cc1,109 to 111 °C
24,CCN(CC)S(=O)(=O)c1ccc(OC)c(NC(=O)CCl)c1,100 to 102 °C

row,Compound,melting point
1,O=C1Nc2ccccc2C1=NO,242 to 244 °C
2,COC(=O)c1ccsc1N1CCC(N)C1=O (stereo not drawn),88 to 90 °C
3,O=C(O)c1cc(-c2cc(F)ccc2F)no1,187 to 189 °C
4,O=C(O)C1CCN(c2ccc(C(F)(F)F)cc2[N+](=O)[O-])CC1,141 to 143 °C
5,Cc1n[nH]c(C)n1,127 to 131 °C
6,O=C(O)CCn1cc[nH]c(=O)c1=O,239 to 241 °C
7,O=C(c1ccc(Cl)cc1)c1ccsc1,92 to 94 °C
8,O=C(Nc1ccccc1C(=O)O)c1cccc(Br)c1,189 to 191 °C
9,Nc1[nH]ncc1-c1ccccc1Br,129 to 131 °C
10,O=C(O)/C=C/c1cn(-c2ccccc2)nc1-c1ccc(Cl)s1,200 to 202 °C
11,COc1ccc(Cc2nnc(S)o2)cc1OC,202 to 204 °C
12,CN(C)c1ccc(C(N)=S)cc1,117 to 119 °C
13,CCCCCC(C)CNC(=S)NN (stereo not drawn),48 to 50 °C
14,O=C(Cc1cccc2ccccc12)NO,179 to 181 °C
15,Cc1ccc(NC(=O)CCl)cc1Cl,73 to 75 °C
16,CC(Cl)C(=O)Nc1ccc(Cl)cc1C(F)(F)F (stereo not drawn),107 to 109 °C
17,Cc1ncc(CN2CCNCC2)s1,79 to 81 °C
18,Nc1ccc(OCC(F)(F)F)c(C(=O)O)c1,190 to 192 °C
19,C#Cc1cccc(NCC(=O)NC)c1,127 to 129 °C
20,CC(C)(C)OC(=O)NC1(C(=O)O)CCOC(C)(C)C1 (stereo not drawn),176 to 178 °C
21,Nc1cccc(C(=O)O)n1,310 to 312 °C
22,CC(C)c1ccc(C2(C(=O)O)CCCC2)cc1,153 to 155 °C
23,CC(C)(C)CCN1CCNCC1,119 to 122 °C
24,CN(C)C(=O)CCn1cc(Br)cn1,64 to 66 °C

row,Compound,melting point
1,COC(=O)c1ccccc1CBr,31 to 33 °C
2,NC(=S)CCN1CCOC1=O,140 to 142 °C
3,Cc1cc(Br)cc2c1NC(=O)C2=O,298 to 300 °C
4,Cc1ccc(-c2nnc(C(C)Cl)o2)cc1C (stereo not drawn),86 to 88 °C
5,O=C1CCc2ccc(F)cc2N1,187 to 189 °C
6,N#Cc1ccc(CS(=O)(=O)CC(=O)O)cc1,197 to 199 °C
7,CCOCCS(=O)(=O)NCC(=O)O,63 to 65 °C
8,CC(C)(C)C1CCc2sc(C(=O)O)cc2C1 (stereo not drawn),169 to 171 °C
9,CC(=O)Nc1cccc(NC(=O)C2CCNCC2)c1,199 to 201 °C
10,CCOc1ccc(/C=C/C(=O)O)cc1OC,202 to 204 °C
11,O=c1cc(CO)nc2ccccn12,172 to 174 °C
12,COc1ccc(C2C(C(=O)O)CCC(=O)N2C)cc1 (stereo not drawn),213 to 215 °C
13,NC(=NO)c1ccnc(N2CCCCC2)c1,179 to 181 °C
14,CN1CCCCC/C1=N/S(=O)(=O)c1ccc(N)cc1,223 to 225 °C
15,Nc1nnc(C2Cc3ccccc3O2)o1 (stereo not drawn),198 to 200 °C
16,COC(=O)c1ccc(S(=O)(=O)Cl)cc1,65 to 70 °C
17,COc1cccc(Nc2nnc(SCC(=O)O)s2)c1,135 to 137 °C
18,O=C1CCOc2c(Cl)ccc(Cl)c21,67 to 69 °C
19,CC(C)OCc1c(C(=O)O)oc2ccccc12,131 to 133 °C
20,c1ccc(Nc2ncccn2)cc1,107 to 109 °C
21,O=C(O)c1ncn(-c2ccccc2)n1,179 to 181 °C
22,CC1CCC(NS(=O)(=O)c2ccc(Cl)c([N+](=O)[O-])c2)CC1 (stereo not drawn),101 to 103 °C
23,CNS(=O)(=O)c1cc(N)ccc1C,133 to 137 °C
24,Fc1ccc(Nc2nccs2)cc1Cl,124 to 126 °C

row,Compound,melting point
1,CCCCC(NC(N)=O)C(=O)O (stereo not drawn),166 to 168 °C
2,CC(C)c1nn(C2CCS(=O)(=O)C2)cc1C(=O)O (stereo not drawn),202 to 204 °C
3,N#Cc1ccc(N2CCCC2=O)cc1,106 to 108 °C
4,Nc1cccc(N2C(=O)CC3(CCCC3)C2=O)c1,136 to 138 °C
5,COc1ccccc1CN1C(=O)C=CC1=O,93 to 95 °C
6,O=C(O)CCCc1ccc(Cl)c(Cl)c1,69 to 71 °C
7,NC(=S)Cn1ccc(=O)[nH]c1=O,256 to 258 °C
8,COc1ccccc1-c1nnc(S)n1N,210 to 220 °C
9,Clc1ccnc2ccsc12,32 to 34 °C
10,O=C(O)c1c[nH]c2cccc([N+](=O)[O-])c12,170 to 172 °C
11,COc1ccc(-c2csc(N)n2)cc1Br,188 to 190 °C
12,CCOC(=O)c1sc(N)c(C(=O)c2ccccc2)c1C,119 to 121 °C
13,Cc1oc(C(=O)O)cc1COc1ccccc1,139 to 141 °C
14,CCC(O)CNc1ccccc1 (stereo not drawn),48 to 50 °C
15,Cc1ccc(-n2nc(C)c(C(=O)O)c2Cl)cc1Cl,241 to 243 °C
16,Cc1cc(C(=O)CCl)c(C)n1-c1ccc(Br)cc1,82 to 84 °C
17,O=C(O)c1c[nH]c(C(=O)N2CCCC2)c1,264 to 266 °C
18,O=C(O)C1CC(O)CN1C(=O)C12CC3CC(CC(C3)C1)C2 (stereo not drawn),206 to 208 °C
19,O=C1CC(c2ccc(Cl)cc2)CC(=O)N1,152 to 154 °C
20,CC(C(=O)c1ccc(Br)cc1)N1C(=O)CCC1=O (stereo not drawn),171 to 173 °C
21,Cn1ncc(C(=O)O)c1Br,202 to 204 °C
22,Cc1nn(-c2ccc(C(F)(F)F)cn2)c(C)c1CC(=O)O,142 to 144 °C
23,NC(=O)C1=CCCC1,166 to 168 °C
